# Calls of active or inactive are those of the source.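 The calls were made as follows: active = compounds whose fitted half-maximal concentration in the cell-protection dose series is at or below a set limit; inactive = the rest.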
# Tested on: H9c2 cardiomyocytes, 2-deoxyglucose stress, ATP luminescence, 2 h
# Experiment: protection of cardiomyocytes from 2-deoxyglucose injury, dose response, cell-based, 2-deoxyglucose stress, uHTS hits (AID 588780)
row,SMILES,IC50
1,CN(CC(=O)Nc1ccccc1Cl)C(=O)CCc1nc2ccccc2c(=O)[nH]1,38 µM (inactive)
2,COc1ccccc1OCC(=O)N/N=C/c1cccc2cccnc12,49.2 µM (inactive)
3,O=P(Nc1ccccc1)(Oc1ccccc1)Oc1ccccc1,> 79 µM (inactive)
4,O=[N+]([O-])c1ccc(-c2nc(Nc3ccc(O)cc3)c3ccccc3n2)cc1,> 79 µM (inactive)
5,COc1cc(/C=C/c2nc3ccccc3c(=O)n2-c2ccccc2O)ccc1O,20.6 µM
6,COc1ccc(S(=O)(=O)N(CCCN2CCCC2=O)Cc2cc3cc(C)c(C)cc3[nH]c2=O)cc1,26.9 µM
7,CCOC(=O)c1cccc(C2=C(CNC(=O)c3cccnc3)[C@H]3CC[C@@H](C2)N3Cc2ccccc2)c1,> 79 µM (inactive)
8,CCOC(=O)CNS(=O)(=O)c1cc(-c2n[nH]c(=O)c3ccccc23)ccc1C,> 79 µM (inactive)
9,N#Cc1c(-c2ccco2)cc(-c2ccccn2)nc1N,22.7 µM
10,CCCCOc1ccc(C(=O)N/C(=C\c2ccc(OC)cc2)C(=O)OCc2ccco2)cc1,> 79 µM (inactive)
11,O=C(Cn1[nH]c(=O)c2ccccc2c1=O)OCC(=O)N(Cc1ccccc1)Cc1ccccc1,> 79 µM (inactive)
12,Cn1c(=O)[nH]c(=O)c2c1nc(Br)n2CC(O)COc1ccc(Cl)cc1 (stereo not drawn),15.2 µM
13,Cc1sc2nc(CSCC(=O)N(C)CC(=O)Nc3ccc(F)cc3)[nH]c(=O)c2c1C,> 79 µM (inactive)
14,COc1cc(-c2cc(C(=O)N3CCN(c4ccccn4)CC3)c3ccccc3n2)cc(OC)c1OC,14.4 µM
15,Cc1cc2ccccc2c(=O)[nH]1,7.23 µM
16,O=C(Nc1ccc2nc(N3CCOCC3)sc2c1)c1cc2ccccc2o1,> 79 µM (inactive)
17,c1ccc(-c2cn3c(n2)CCc2ccc4cccnc4c2-3)cc1,> 79 µM (inactive)
18,CCOC(=O)C(C)Oc1ccc(C2NC(=O)NC(C)=C2C(C)=O)cc1Br (stereo not drawn),> 79 µM (inactive)
19,COc1ccc(Cl)cc1NC(=O)CN(C)C(=O)Cc1n[nH]c(=O)c2ccccc12,> 79 µM (inactive)

row,SMILES,IC50
1,COCCn1nnnc1C(C(C)C)N(Cc1cccnc1)Cc1cc2cc(OC)ccc2[nH]c1=O (stereo not drawn),> 79 µM (inactive)
2,CCOc1ccc(CC(=O)Nc2c(C(N)=O)oc3ccc(Br)cc23)cc1OCC,> 79 µM (inactive)
3,COc1ccc(-c2cc(=O)c3ccccc3[nH]2)cc1,65 µM (inactive)
4,COC(=O)c1ccccc1NC(=O)c1ccc2nccnc2c1,> 79 µM (inactive)
5,O=C1Nc2cnc(Cl)nc2Nc2ccccc21,> 79 µM (inactive)
6,COc1ccc(CNc2nn3c(-c4cccc(C(=O)N(C)C)c4)cnc3s2)cc1,> 79 µM (inactive)
7,COc1cc(/C=C/C(=O)OCC(=O)N2c3ccccc3NC(=O)C2(C)C)cc(OC)c1OC,> 79 µM (inactive)
8,Cc1ccc(OCC(=O)N/N=C/c2cccc3cccnc23)cc1,35.8 µM (inactive)
9,Cc1sc2nc(COC(=O)Cc3ccccc3)[nH]c(=O)c2c1C,> 79 µM (inactive)
10,CCOC(=O)c1cc(-c2nnc(-c3cc(OC)c(OC)c(OC)c3)o2)c(C)nc1C,> 79 µM (inactive)
11,O=C(c1ccco1)N1CCN(C(=O)c2cc(-c3ccncc3)nc3ccc(Br)cc23)CC1,13.8 µM
12,COc1ccccc1C(=O)COC(=O)Cn1[nH]c(=O)c2ccccc2c1=O,> 79 µM (inactive)
13,CC1(C)CC2C1CCC1(O)CC2(C)CCC1N(O)c1ccc(C(=O)NCCO)cn1 (stereo not drawn),28.5 µM
14,CC1CCCN(Cc2nc3c(c(=O)n(C)c(=O)n3C)n2CCCc2ccccc2)C1 (stereo not drawn),35 µM (inactive)
15,COC(=O)c1cc(NC(=O)Nc2cc(OC)ccc2OC)cc(C(=O)OC)c1,38.4 µM (inactive)
16,COc1cccc(C(=O)Nc2c(C(N)=O)oc3ccccc23)c1,> 79 µM (inactive)
17,COc1cc2c(C(=O)NCc3ccccn3)cn(CC(C)C)c(=O)c2cc1OC,54.6 µM (inactive)
18,Cn1nc(-c2ccccc2F)c2cc(C(=O)Nc3ccc4c(c3)OCCO4)sc21,> 79 µM (inactive)
19,O=C(Nc1ccc(CN2CCOCC2)cc1)c1ccc(-c2cccc([N+](=O)[O-])c2)o1,> 79 µM (inactive)

# — PubChem BioAssay AID588780 (Sanford-Burnham Center for Chemical Genomics, 2011)
